Values of other authors as cited in patent US20040220167A1, “Methods of treating neuralgic pain” (priority 2003, published 2004).

Details: in vivo

For Verteporfin, the “fraction cleared via the kidneys” value is listed as “Less than 1%”, the mean half-life is listed as 5 to 6 h and the primary clearance route is listed as “primarily cleared through bile and feces”.
